Source: EP0647136B1, “USE OF CONDENSED BIS-(3,4-DIHYDRO-PYRIDINYL)METHANE FOR TREATING CROHN'S DISEASE, COLITIS ULCEROSA, CHRONIC INFLAMATORY PROCESSES AND AS AN ANTIPROLIFERATIVE” (BOEHRINGER INGELHEIM INTERNATIONAL GmbH, priority 1992, dated 1994)

System: RBL-2H3-Zellen
Assay: Antigen-induced (DNP-BSA) activation of sensitised RBL-2H3 cells, fluorometric cytoplasmic Ca2+ measurement
Assay type: cell-based, rat
Settings: 10 µM
Source text: Verwendet werden einzelne an Glasplättchen adhärente RBL-2H3-Zellen (eine den Mastzellen verwandte Tumorzellinie).
Die Kultivierung und Anhaftung der RBL-2H3-Zellen erfolgt in der HIDE und BEAVEN (1991) beschriebenen Methode. Zur Sensibilisierung der adhäsiven RBL-2H3-Zellen werden die Zellen 2 Stunden bei Raumtemperatur mit einer 1:2000 verdünnten käuflichen Gammaglobulin E-Lösung gegen einen Dinitrophenol-Rinderserumalbumin-Komplex (DNP-BSA-Antigen) inkubiert. Anschließend werden die Zellen gewaschen. Durch Zusatz von 0,1 ml DNP-BSA-Lösung (10 µg/ml) erfolgt eine massive immunologische Zellaktivierung, die durch einen cytoplasmatischen Ca^2+-overload vermittelt wird. Die fluorometrische Calciummessung im Cytoplasma einzelner adhärenter RBL-2H3-Zellen erfolgt in Analogie zu der von KUDO und OGURA (1986) für neuronale Zellen beschriebenen Methode, die auch weiter oben in dieser Beschreibung erläutert wird.

O=C(O)c1cc(=O)c2c(OCC(O)COc3cccc4oc(C(=O)O)cc(=O)c34)cccc2o1 [Chromoglycat]
Hemmung der antigen-induzierten Zellaktivierung: ca. 50%
